Common to all, as to type: cell-based
The target of assay [1] is T1, human P2X3 receptor (Homo sapiens, UniProt P56373).
T1 sequence (P56373 1-397): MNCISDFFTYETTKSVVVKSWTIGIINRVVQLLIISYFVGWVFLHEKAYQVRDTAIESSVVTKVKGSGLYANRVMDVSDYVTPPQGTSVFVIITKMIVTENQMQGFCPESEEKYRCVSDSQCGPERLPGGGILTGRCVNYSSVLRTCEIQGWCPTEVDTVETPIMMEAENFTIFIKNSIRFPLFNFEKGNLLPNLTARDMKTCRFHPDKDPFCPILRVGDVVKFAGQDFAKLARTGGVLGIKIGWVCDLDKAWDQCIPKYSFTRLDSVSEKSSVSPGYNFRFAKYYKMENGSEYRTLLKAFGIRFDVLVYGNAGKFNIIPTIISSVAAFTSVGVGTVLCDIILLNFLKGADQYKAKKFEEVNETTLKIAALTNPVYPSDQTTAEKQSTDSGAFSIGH
As to the kind of experiment: Intracellular calcium measurement to assess antagonist activity at human P2X3 receptors (hP2X3 FLIPR). Further details: expressed in transfected cells; host or cells: human astrocytoma 1321N1 (1312N1 [sic]). The conditions noted are these: head prints (1321N1); read-out: 1) hP2X3 IC50 [nM] (1321N1). Put shortly: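 Human P2X3-expressing […] astrocytoma cells, Fluo-4-loaded, were preincubated with compound 30 min at 37 °C in HBSS/HEPES probenecid buffer (0.5 mM CaCl2, pH 7.4, 1% DMSO final). Agonist-evoked peak fluorescence over 90 s was normalised to DMSO and control wells; IC50 fitted from triplicates.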

Assay [2] deals with T2, human P2X2/3 receptors (Homo sapiens, UniProt P56373+Q9UBL9).
T2 construct: expressed in transfected cells; host or cells: human astrocytoma 1321N1 (1312N1 [sic])
T2 sequence (P56373 1-397): T1 sequence (P56373 1-397)
T2 sequence (Q9UBL9 1-471): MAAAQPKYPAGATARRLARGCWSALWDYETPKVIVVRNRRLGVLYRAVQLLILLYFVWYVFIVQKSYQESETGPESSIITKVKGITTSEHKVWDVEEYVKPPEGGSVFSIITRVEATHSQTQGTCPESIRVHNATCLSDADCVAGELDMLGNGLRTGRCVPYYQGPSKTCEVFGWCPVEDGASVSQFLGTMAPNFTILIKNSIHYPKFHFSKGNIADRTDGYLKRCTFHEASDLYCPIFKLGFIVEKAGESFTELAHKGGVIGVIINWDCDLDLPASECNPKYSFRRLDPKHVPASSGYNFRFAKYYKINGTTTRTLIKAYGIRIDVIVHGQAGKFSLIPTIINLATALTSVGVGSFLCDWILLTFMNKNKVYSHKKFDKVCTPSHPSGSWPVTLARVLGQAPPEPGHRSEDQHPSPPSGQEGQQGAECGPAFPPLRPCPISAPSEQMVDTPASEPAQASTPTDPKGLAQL
As to the kind of experiment: Intracellular calcium measurement, antagonist activity at human P2X2/3 receptors (hP2X23 1321N1), Fluo8. To be noted: for IC50: column 4); 1321N1 cells, human P2X2/3, Fluo8, agonist ATP at EC50; read-out: 4) hP2X2/3 IC50 [nM] (1321N1); for hP2X23/hP2X3* Selectivity (1321N1): ratio of column 4) hP2X2/3 to column 3) hP2X3, 1321N1. Put shortly: (§1)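 Inhibition of ATP-triggered Ca2+ transients is measured in 1321N1 cells expressing P2X3 homotrimers or P2X2/3 heterotrimers.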

The target of assay [3] is T1, human P2X3 receptor. Nature of the assay: Intracellular calcium measurement, antagonist activity at human P2X3 receptors (hP2X3 1321N1), Fluo8. Set-up: expressed in transfected cells; host or cells: human astrocytoma 1321N1 (1312N1 [sic]). To be noted: column 3); 1321N1 cells, human P2X3, Fluo8, agonist ATP at EC50. Put shortly:
as §1

Assay [4] addresses T1, human P2X3 receptor. As to the kind of experiment: Intracellular calcium measurement to assess antagonist activity at human P2X3 receptors (hP2X3 CHO), photina luminescence. Set-up: expressed in transfected cells; host or cells: Chinese hamster ovary (CHO) cells. The conditions noted are these: column 2), CHO cells, agonist α,β-methylene-ATP at EC50. Put shortly: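 CHO cells stably expressing human P2X3 and mitochondrial photina, plated the day before at 30 °C, then loaded 3 h at 37 °C in 2 mM Ca-tyrode buffer with 5 μg/ml coelenterazine. Agonist-evoked calcium luminescence read immediately; inhibition seen as signal decrease.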

SMILES strings stand for the structures. Bounds are passed on as bounds.

Consider `COCC(C)N1Cc2c(n(CC(=O)Nc3ccc(F)cn3)c3cc(Br)nn3c2=O)C1=O` (stereo not shown) [Example 36, 2-[2-bromo-6-(1-methoxypropan-2-yl)-5,8-dioxo-5,6,7,8-tetrahydro-4H-pyrazolo[1,5-a]pyrrolo[3,4-d]pyrimidin-4-yl]-N-(5-fluoropyridin-2-yl)acetamide], for which the IC50 was 34 nM in assay [1], over 20900 nM in assay [2], 57 nM in assay [3] and 44 nM in assay [4]. Besides, in assay [2], the “hP2X23/hP2X3* Selectivity (1321N1)” value is on record as over 368.
As to `COC[C@H](C)N1Cc2c(n(CC(=O)Nc3ccc(F)cn3)c3cc(C(F)(F)F)nn3c2=O)C1=O` [Example 37], the IC50 in assay [1] was 82 nM; in assay [2], over 32000 nM; in assay [3], 200 nM; in assay [4], 135 nM. Moreover, the “hP2X23/hP2X3* Selectivity (1321N1)” value in assay [2] was over 160.
In the same order, the values of `CC(C)(C)c1cc2n(CC(=O)Nc3ccc(F)cn3)c3c(c(=O)n2n1)CN(CC(=O)N1CCCC1)C3=O` [Example 38] are 161 nM, over 21000 nM, 627 nM, 175 nM and over 34.
As to `COC[C@H](C)N1Cc2c(n(CC(=O)Nc3ccc(F)cn3)c3cc(C(C)C)nn3c2=O)C1=O` [Example 39], the IC50 in assay [1] was 14 nM; in assay [2] it was 7550 nM; in assay [3], 25 nM; in assay [4] it was 29 nM. Also, in assay [2], the “hP2X23/hP2X3* Selectivity (1321N1)” value was 308.
In the same order, the values of `COC[C@H](C)N1Cc2c(n(CC(=O)Nc3ccc(F)cn3)c3cc(C4CCOCC4)nn3c2=O)C1=O` [Example 40] are 20 nM, over 23500 nM, 31 nM, 26 nM and over 758.
For `COC[C@H](C)N1Cc2c(n(CC(=O)Nc3ccc(F)cn3)c3cc(C)nn3c2=O)C1=O` [Example 41] the same measures were 55 nM, over 32000 nM, 82 nM, 51 nM and over 393.
In the same order, the values of `COC[C@@H](C)N1Cc2c(n(CC(=O)Nc3ccc(F)cn3)c3cc(C(C)(C)C)nn3c2=O)C1=O` [Example 43] are 19 nM, 6500 nM, 31 nM, 20 nM and 213.
`COC[C@@H](C)N1Cc2c(n(CC(=O)Nc3ccc(F)cn3)c3cc(C(C)C)nn3c2=O)C1=O` [Example 44]: the IC50 in assay [1] was 16 nM; in assay [2], 8200 nM; in assay [3], 34 nM; in assay [4], 39 nM. Moreover, the “hP2X23/hP2X3* Selectivity (1321N1)” value in assay [2] is 241.
With `CC(C)N1Cc2c(n(CC(=O)Nc3ccc(F)cn3)c3ccnn3c2=O)C1=O` [Example 45], the IC50 in assay [1] was 377 nM; in assay [2] it was over 32000 nM; in assay [3], 370 nM; in assay [4] it was 394 nM. For the same compound, the “hP2X23/hP2X3* Selectivity (1321N1)” value in assay [2] is over 86.
For the compound `CCc1cc2n(CC(=O)Nc3ccc(F)cn3)c3c(c(=O)n2n1)CN([C@@H](C)COC)C3=O` [Example 46], the IC50 in assay [1] was determined as 28 nM; in assay [2], 14000 nM; in assay [3], 36 nM; in assay [4], 59 nM. Further, in assay [2], the “hP2X23/hP2X3* Selectivity (1321N1)” value stood at 385.
For `CC(C)(C)c1cc2n(CC(=O)Nc3ccc(Cl)cn3)c3c(c(=O)n2n1)CN(C1COC1)C3=O` [Example 48] the same measures were 182 nM, 8100 nM, 263 nM, 555 nM and 31.
As to `COCCN1Cc2c(n(CC(=O)Nc3ccc(F)cn3)c3cc(C(C)(C)C)nn3c2=O)C1=O` [Example 49], the IC50 was determined as 23 nM in assay [1], 3900 nM in assay [2], 33 nM in assay [3] and 62 nM in assay [4]. Further, in assay [2], the “hP2X23/hP2X3* Selectivity (1321N1)” value is reported as 119.
For `Cc1cc2n(CC(=O)Nc3ccc(F)cn3)c3c(c(=O)n2n1)CN([C@@H](C)C1CC1)C3=O` [Example 50] the same measures were 117 nM, 8700 nM, 155 nM, 215 nM and 56.
For the compound `CC(C)c1cc2n(CC(=O)Nc3ccc(F)cn3)c3c(c(=O)n2n1)CN(CC(C)(C)O)C3=O` [Example 51], the IC50 came to 311 nM in assay [1], 11500 nM in assay [2], 253 nM in assay [3] and 160 nM in assay [4]. Further, the “hP2X23/hP2X3* Selectivity (1321N1)” value in assay [2] was 46.
For `COC[C@@H](C)N1Cc2c(n(CC(=O)Nc3ccc(F)cn3)c3cc(C)nn3c2=O)C1=O` [Example 52] the same measures were 52 nM, over 23000 nM, 71 nM, 43 nM and over 324.
Regarding `CC[C@H](C)N1Cc2c(n(CC(=O)Nc3ccc(F)cn3)c3cc(C)nn3c2=O)C1=O` [Example 53], the IC50 in assay [1] is 133 nM; in assay [2], over 22000 nM; in assay [3] it was 200 nM; in assay [4], 195 nM. The “hP2X23/hP2X3* Selectivity (1321N1)” value in assay [2] is given as over 110.
In the same order, the values of `C[C@H](O)CN1Cc2c(n(CC(=O)Nc3ccc(F)cn3)c3cc(C(C)(C)C)nn3c2=O)C1=O` [Example 54] are 215 nM, over 32000 nM, 263 nM, 155 nM and over 122.
For the compound `Cc1cc2n(CC(=O)Nc3ccc(F)cn3)c3c(c(=O)n2n1)CN([C@H](C)C1CC1)C3=O` [Example 55], the IC50 is 104 nM in assay [1], 10800 nM in assay [2], 117 nM in assay [3] and 195 nM in assay [4]. Further, the “hP2X23/hP2X3* Selectivity (1321N1)” value in assay [2] is on record as 93.
As for `CC(C)(C)c1cc2n(CC(=O)Nc3ccc(F)cn3)c3c(c(=O)n2n1)CN(CCO)C3=O` [Example 135, 2-[2-tert-butyl-6-(2-hydroxyethyl)-5,8-dioxo-5,6,7,8-tetrahydro-4H-pyrazolo[1,5-a]pyrrolo[3,4-d]pyrimidin-4-yl]-N-(5-fluoropyridin-2-yl)acetamide], the IC50 in assay [1] turned out to be 40 nM; in assay [2] it was 6850 nM; in assay [3] it was 119 nM; in assay [4] it was 59 nM. Besides, in assay [2], the “hP2X23/hP2X3* Selectivity (1321N1)” value is 58.
In the same order, the values of `CC(C)(C)c1cc2n(CC(=O)Nc3ccc(F)cn3)c3c(c(=O)n2n1)CN(CCN1CCOCC1)C3=O` [Example 138, 2-{2-tert-butyl-6-[2-(morpholin-4-yl)ethyl]-5,8-dioxo-5,6,7,8-tetrahydro-4H-pyrazolo[1,5-a]pyrrolo[3,4-d]pyrimidin-4-yl}-N-(5-fluoropyridin-2-yl)acetamide] are 56 nM, 9150 nM, 86 nM, 32 nM and 107.

The record behind these values is patent publication US11319324B2, “Pyrazolo-pyrrolo-pyrimidine-dione derivatives as P2X3 inhibitors” (Bayer Aktiengesellschaft, priority 2017, dated 2022).
